For assay [1], the system named is S. aureus, B. subtilis, E. coli, S. cerevisiae. The following applies: cited from earlier work.
For assay [2], the target named is T1, α-amylase (Sus scrofa, UniProt P00690).
T1 sequence (P00690 16-511): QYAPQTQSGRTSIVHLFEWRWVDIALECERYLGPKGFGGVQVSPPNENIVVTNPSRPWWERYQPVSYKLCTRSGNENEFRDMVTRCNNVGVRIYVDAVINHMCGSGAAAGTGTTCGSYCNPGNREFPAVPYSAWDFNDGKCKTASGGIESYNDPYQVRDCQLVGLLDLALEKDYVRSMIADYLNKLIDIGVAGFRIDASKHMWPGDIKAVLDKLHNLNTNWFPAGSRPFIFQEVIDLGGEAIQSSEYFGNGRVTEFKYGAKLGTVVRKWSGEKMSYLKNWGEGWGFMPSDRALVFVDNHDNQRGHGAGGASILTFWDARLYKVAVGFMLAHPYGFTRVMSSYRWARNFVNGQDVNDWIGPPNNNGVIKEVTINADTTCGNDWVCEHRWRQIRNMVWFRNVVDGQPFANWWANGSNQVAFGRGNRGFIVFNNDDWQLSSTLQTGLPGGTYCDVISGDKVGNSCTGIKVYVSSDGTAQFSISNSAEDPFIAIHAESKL
Nature of the assay: α-Amylase inhibitory assay (starch azure). The format is biochemical. The following applies: Table 4, reference compounds, independent experiment; read-out: IC50, α-Amylase inhibition.

In assay [3] the target is α-glucosidase (Saccharomyces cerevisiae, UniProt P53341). The format is biochemical. The following applies: Table 4, reference compounds, independent experiment; read-out: IC50, α-Glucosidase inhibition.
Assay [4] concerns various bacterial pathogens. Also on record: method as in PMID 34394014. The note with it: cited from earlier work.
Assay [5] concerns S. aureus, B. subtilis, E. coli, and Klebsiella pneumoniae. The note with it: cited from earlier work.
In assay [6] the test system is Gram-positive and Gram-negative bacteria and fungi. The note with it: cited from earlier work.

We go through 4 compounds from publication PMC12706144, “Potential Antidiabetic Inhibitors and Antimicrobials from the Fungus Fusarium lichenicola Isolated from the Cicada Cryptotympana mandarina Distant, 1891” (Journal of Microbiology and Biotechnology, 2025).

Chain of α-glucosidase (P53341 whole entry, looked up): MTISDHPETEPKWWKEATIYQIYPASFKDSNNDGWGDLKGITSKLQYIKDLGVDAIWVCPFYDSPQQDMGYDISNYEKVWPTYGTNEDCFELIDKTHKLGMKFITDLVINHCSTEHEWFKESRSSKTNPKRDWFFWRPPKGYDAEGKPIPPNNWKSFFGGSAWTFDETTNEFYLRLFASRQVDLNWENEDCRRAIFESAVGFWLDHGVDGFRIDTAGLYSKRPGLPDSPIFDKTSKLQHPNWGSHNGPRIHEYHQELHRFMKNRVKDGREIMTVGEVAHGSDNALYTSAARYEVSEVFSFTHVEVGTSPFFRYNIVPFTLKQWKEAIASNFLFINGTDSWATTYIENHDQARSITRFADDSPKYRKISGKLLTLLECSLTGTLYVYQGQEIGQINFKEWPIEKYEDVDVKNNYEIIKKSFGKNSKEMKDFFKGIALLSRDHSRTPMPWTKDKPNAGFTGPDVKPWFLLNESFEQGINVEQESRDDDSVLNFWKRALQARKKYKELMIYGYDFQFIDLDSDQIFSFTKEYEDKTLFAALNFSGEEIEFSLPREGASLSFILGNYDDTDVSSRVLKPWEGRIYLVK

Regarding `C=C(C)C1CC=C(C)CC1` (stereo not drawn) [C4, 4-Isopropenyl-1-methylcyclohexene], in assay [1], the MICs is 0.5 to 1.0 µg/mL.
One may read the IC50 as the point on the concentration scale where inhibition reaches its midpoint. On to `CSSSC` [C11, Dimethyltrisulfane], for which the IC50 is 332 ± 23 µM in assay [2] and 462 ± 44 µM in assay [3]. Also, the antimicrobial activity result in assay [4] was “promising antimicrobial activity”.
For the compound `CCCCCCCCCCCCCCCC(=O)O` [C21, n-Hexadecanoic acid], the antibacterial effects result in assay [5] is reported as “good antibacterial effects”.
`CCCCCC/C=C\CCCCCCCC(=O)O` [C22, Palmitoleic acid]: the antimicrobial activity entry in assay [6] is recorded as “antimicrobial activity”.
